Laboratory results published in the Kinase Knowledgebase extract (Sharma et al. 2016).

Target: CDK2 (UniProt P24941)
Assay: Enzyme Assay

Cc1cc(-c2[nH]nc3c2C(=O)c2c(NC(=O)NN4CCN(C)CC4)cccc2-3)ccc1OCCN1CCCC1 was tested, and the IC50 was < 100 nM.

For CC(C)c1nn(-c2c(Cl)cc(Cl)cc2Cl)c2nc(Cc3ccc(CN4CCCC4)n3C)[nH]c(=O)c12, the IC50 was < 100 nM.

For CC(C)c1nn(-c2c(Cl)cc(Cl)cc2Cl)c2nc(Cc3ccc(OCC(C)(C)O)cc3)[nH]c(=O)c12, the IC50 was < 100 nM.

O=C(Nc1cccc2c1C(=O)c1c(-c3ccc(CN4CCOCC4)cc3)n[nH]c1-2)NN1CCOCC1 was tested, and the IC50 was < 100 nM.

Cc1noc(COc2ccc(-c3[nH]nc4c3C(=O)c3c(NC(=O)NN5CCOCC5)cccc3-4)cc2)n1 was tested, and the IC50 was < 100 nM.

CC(C)c1nn(-c2c(Cl)cccc2Cl)c2nc(Cc3ccc(CN4CCCC4)c(O)c3)[nH]c(=O)c12 was tested, and the IC50 was < 100 nM.

In the case of O=C(Nc1cccc2c1C(=O)c1c(-c3ccc(CN4CCN(c5ccccn5)CC4)cc3)n[nH]c1-2)NN1CCOCC1, the IC50 is reported as < 100 nM.

O=C(Nc1cccc2c1C(=O)c1c(-c3ccc(CN4CCCC4)cc3)n[nH]c1-2)NN1CCOCC1 was tested, and the IC50 was < 100 nM.

In the case of Cc1cc(OCCN2CCCC2)ccc1-c1[nH]nc2c1C(=O)c1c(NC(=O)NN3CCN(C)CC3)cccc1-2, the IC50 is reported as < 100 nM.

With Cc1cc(OCCN2CCN(C(C)C)CC2)ccc1-c1[nH]nc2c1C(=O)c1c(NC(=O)NN3CCN(C)CC3)cccc1-2 the IC50 was < 100 nM.

With CC(C)c1nn(-c2c(Cl)cc(Cl)cc2Cl)c2nc(Cc3ccc(NS(=O)(=O)CCCN4CCCC4)cc3)[nH]c(=O)c12 the IC50 was < 100 nM.

In the case of CC(C)c1nn(-c2c(Cl)cccc2Cl)c2nc(Cc3ccc(OCCOC(=O)[C@@H](N)C(C)C)cc3)[nH]c(=O)c12, the IC50 is reported as < 100 nM.

For O=C(Nc1cccc2c1C(=O)c1c(-c3ccc(CN4CCN(CCO)CC4)cc3)n[nH]c1-2)NN1CCOCC1, the IC50 was < 100 nM.

For CC(C)N1CCN(C(=O)COc2ccc(-c3[nH]nc4c3C(=O)c3c(NC(=O)NN5CCOCC5)cccc3-4)cc2)CC1, the IC50 was < 100 nM.

Cc1cc(OCCN2CCCC2)ccc1-c1[nH]nc2c1C(=O)c1c(NC(=O)NN3CCOCC3)cccc1-2 was tested, and the IC50 was < 10 nM.

For Cc1cc(-c2[nH]nc3c2C(=O)c2c(NC(=O)NN4CCN(C)CC4)cccc2-3)ccc1OCCN1CCN(C(C)C)CC1, the IC50 was < 100 nM.

For CC(C)c1nn(-c2c(Cl)cc(Cl)cc2Cl)c2nc(Cc3ccc(CN4CCN(C(C)C)CC4)n3C)[nH]c(=O)c12, the IC50 was < 100 nM.

For O=C(Nc1cccc2c1C(=O)c1c-2n[nH]c1-c1ccc(OCCN2CCOCC2)cc1)NN1CCOCC1, the IC50 was < 100 nM.

With CC(C)N1CCN(CCOc2ccc(-c3n[nH]c4c3C(=O)c3c(NC(=O)NN5CCOCC5)cccc3-4)cc2F)CC1 the IC50 was < 10 nM.

CC(C)c1nn(-c2c(Cl)cccc2Cl)c2nc(Cc3ccc(OCCOP(=O)(O)O)cc3)[nH]c(=O)c12 was tested, and the IC50 was < 100 nM.

In the case of COc1ccc(Cc2nc3c(c(C(C)C)nn3-c3c(Cl)cccc3Cl)c(=O)[nH]2)cc1, the IC50 is reported as < 10 nM.

In the case of O=C(O)COc1ccc(-c2n[nH]c3c2C(=O)c2c(NC(=O)NN4CCOCC4)cccc2-3)cc1, the IC50 is reported as < 10 nM.

For CC(C)N1CCN(NC(=O)Nc2cccc3c2C(=O)c2c-3n[nH]c2-c2ccc(OCCN3CCCC3)cc2)CC1, the IC50 was < 10 nM.

For Cc1cc(OCCN2CCCN(C)CC2)ccc1-c1[nH]nc2c1C(=O)c1c(NC(=O)NN3CCN(C)CC3)cccc1-2, the IC50 was < 100 nM.

O=C(Nc1cccc2c1C(=O)c1c-2n[nH]c1-c1ccc(OCC(=O)N2CCCC2)cc1)NN1CCOCC1 was tested, and the IC50 was < 100 nM.

O=C(Nc1cccc2c1C(=O)c1c(-c3ccc(CN4CCN(c5cccc(C(F)(F)F)c5)CC4)cc3)n[nH]c1-2)NN1CCOCC1 was tested, and the IC50 was < 100 nM.

In the case of COCCOc1ccc(Cc2nc3c(c(C(C)C)nn3-c3c(Cl)cccc3Cl)c(=O)[nH]2)cc1, the IC50 is reported as < 100 nM.

O=C(Nc1cccc2c1C(=O)c1c(-c3ccc(OCCN4CCOCC4)c(F)c3)n[nH]c1-2)NN1CCOCC1 was tested, and the IC50 was < 100 nM.

With O=C(Nc1cccc2c1C(=O)c1c-2n[nH]c1-c1ccc(S(=O)(=O)N2CCNCC2)cc1)NN1CCOCC1 the IC50 was < 100 nM.

With Cc1cc(OCCn2cccn2)ccc1-c1[nH]nc2c1C(=O)c1c(NC(=O)NN3CCN(C)CC3)cccc1-2 the IC50 was < 100 nM.

With CN(C)C(=O)COc1ccc(-c2[nH]nc3c2C(=O)c2c(NC(=O)NN4CCOCC4)cccc2-3)cc1 the IC50 was < 10 nM.

With CC(C)c1nn(-c2c(Cl)cccc2Cl)c2nc(Cc3ccc(O)c(CN4CCOCC4)c3)[nH]c(=O)c12 the IC50 was < 100 nM.

COc1cc(-c2[nH]nc3c2C(=O)c2c(NC(=O)NN4CCOCC4)cccc2-3)ccc1OCCN1CCCC1 was tested, and the IC50 was < 100 nM.

For O=C(Nc1cccc2c1C(=O)c1c(-c3ccc(CN4CCC[C@H]4CO)cc3)n[nH]c1-2)NN1CCOCC1, the IC50 was < 100 nM.

CC(C)N1CCN(CCCOc2ccc(-c3[nH]nc4c3C(=O)c3c(NC(=O)NN5CCOCC5)cccc3-4)cc2)CC1 was tested, and the IC50 was < 10 nM.

O=C(Nc1cccc2c1C(=O)c1c(-c3ccc(OCc4nnn[nH]4)cc3)n[nH]c1-2)NN1CCOCC1 was tested, and the IC50 was < 100 nM.

In the case of Cc1noc(COc2ccc(-c3[nH]nc4c3C(=O)c3c(NC(=O)NN5CCN(C)CC5)cccc3-4)cc2)n1, the IC50 is reported as < 100 nM.

For CC(C)c1nn(-c2c(Cl)cccc2Cl)c2nc(Cc3ccc(O)cc3)[nH]c(=O)c12, the IC50 was < 10 nM.

With CC(C)c1nn(-c2c(Cl)cc(Cl)cc2Cl)c2nc(Cc3ccc(CNC(CO)CO)n3C)[nH]c(=O)c12 the IC50 was < 10 nM.

CN1CCN(NC(=O)Nc2cccc3c2C(=O)c2c-3n[nH]c2-c2ccc(OCCN(CCO)CCO)cc2)CC1 was tested, and the IC50 was < 100 nM.

With CC(C)c1nn(-c2c(Cl)cccc2Cl)c2nc(Cc3ccc(NS(=O)(=O)CCCN4CCOCC4)cc3)[nH]c(=O)c12 the IC50 was < 100 nM.

In the case of CC(C)c1nn(-c2c(Cl)cc(Cl)cc2Cl)c2nc(Cc3ccc(OCCN4CCN(C(C)C)CC4)cc3)[nH]c(=O)c12, the IC50 is reported as < 10 nM.

With CCN1CCN(S(=O)(=O)c2cc(Cl)c(-n3nc(C(C)C)c4c(=O)[nH]c(Cc5ccc(OCCN6CCOCC6)cc5)nc43)c(Cl)c2)CC1 the IC50 was < 1000 nM.

For CN1CCN(NC(=O)Nc2cccc3c2C(=O)c2c(-c4ccc(OCCN5CCCC5)cc4F)n[nH]c2-3)CC1, the IC50 was < 100 nM.

For CC(C)N1CCN(C(=O)COc2ccc(-c3n[nH]c4c3C(=O)c3c(NC(=O)NN5CCOCC5)cccc3-4)cc2)CC1, the IC50 was < 100 nM.

With CC(C)c1nn(-c2c(Cl)cc(Cl)cc2Cl)c2nc(Cc3ccc(NS(=O)(=O)CCCN4CCN(C(C)C)CC4)cc3)[nH]c(=O)c12 the IC50 was < 100 nM.

CN(C)C(=O)CN1CCN(NC(=O)Nc2cccc3c2C(=O)c2c-3n[nH]c2-c2ccc(OCCN3CCCC3)cc2)CC1 was tested, and the IC50 was < 100 nM.

In the case of CC(C)N1CCN(CCOc2ccc(-c3n[nH]c4c3C(=O)c3c(NC(=O)NN5CCOCC5)cccc3-4)c(F)c2)CC1, the IC50 is reported as < 100 nM.

In the case of O=C(Nc1cccc2c1C(=O)c1c(-c3ccc(CN4CCC(O)CC4)cc3)n[nH]c1-2)NN1CCOCC1, the IC50 is reported as < 100 nM.

With CC(C)c1nn(-c2c(Cl)cc(S(N)(=O)=O)cc2Cl)c2nc(Cc3ccc(OCCN4CCOCC4)cc3)[nH]c(=O)c12 the IC50 was < 10 nM.

CC(C)c1nn(-c2c(Cl)cc(Cl)cc2Cl)c2nc(Cc3ccc(OCCO)cc3)[nH]c(=O)c12 was tested, and the IC50 was < 100 nM.

CC(C)N1CCN(S(=O)(=O)c2ccc(-c3[nH]nc4c3C(=O)c3c(NC(=O)NN5CCOCC5)cccc3-4)cc2)CC1 was tested, and the IC50 was < 10 nM.

For CCOC(=O)CN1CCN(NC(=O)Nc2cccc3c2C(=O)c2c-3n[nH]c2-c2ccc(OCCN3CCCC3)cc2)CC1, the IC50 was < 100 nM.

For Cc1cc(OCCN2CCOCC2)ccc1-c1[nH]nc2c1C(=O)c1c(NC(=O)NN3CCN(C)CC3)cccc1-2, the IC50 was < 100 nM.

In the case of CC(C)c1nn(-c2c(Cl)cccc2Cl)c2nc(Cc3ccc(OCCN4CCOCC4)cc3)[nH]c(=O)c12, the IC50 is reported as < 10 nM.

For Cc1cc(OCCCN2CCN(C(C)C)CC2)ccc1-c1[nH]nc2c1C(=O)c1c(NC(=O)NN3CCOCC3)cccc1-2, the IC50 was < 10 nM.

In the case of CN1CCN(CCOc2ccc(-c3n[nH]c4c3C(=O)c3c(NC(=O)NN5CCN(C)CC5)cccc3-4)c(F)c2)CC1, the IC50 is reported as < 100 nM.

In the case of CN1CCN(NC(=O)Nc2cccc3c2C(=O)c2c-3n[nH]c2-c2ccc(OCCN3CCC[C@H]3CO)cc2)CC1, the IC50 is reported as < 100 nM.

With Cc1cc(-c2[nH]nc3c2C(=O)c2c(NC(=O)NN4CCOCC4)cccc2-3)ccc1OCCN1CCN(C(C)C)CC1 the IC50 was < 10 nM.

In the case of CN1CCN(NC(=O)Nc2cccc3c2C(=O)c2c-3n[nH]c2-c2ccc(OCCN3CC[C@H](O)C3)cc2)CC1, the IC50 is reported as < 100 nM.

With CCOC(=O)COc1ccc(-c2[nH]nc3c2C(=O)c2c(NC(=O)NN4CCOCC4)cccc2-3)cc1 the IC50 was < 100 nM.

Cc1nc(Cc2nc3c(c(C(C)C)nn3-c3c(Cl)cccc3Cl)c(=O)[nH]2)cs1 was tested, and the IC50 was < 10 nM.

With CN1CCN(Cc2ccc(-c3n[nH]c4c3C(=O)c3c(NC(=O)NN5CCOCC5)cccc3-4)cc2)CC1 the IC50 was < 100 nM.

In the case of CN1CCN(NC(=O)Nc2cccc3c2C(=O)c2c-3n[nH]c2-c2ccc(OCCn3cccn3)cc2)CC1, the IC50 is reported as < 100 nM.

CC(C)c1nn(-c2c(Cl)cccc2Cl)c2nc(Cc3ccc(CN4CCN(C(C)C)CC4)c(O)c3)[nH]c(=O)c12 was tested, and the IC50 was < 100 nM.

For CN1CCN(NC(=O)Nc2cccc3c2C(=O)c2c-3n[nH]c2-c2ccc(OCC(=O)N3CCCC3)cc2)CC1, the IC50 was < 100 nM.

With CC(C)c1nn(-c2c(Cl)cccc2Cl)c2nc(Cc3ccc(OCCN4CCOCC4)c(O)c3)[nH]c(=O)c12 the IC50 was < 100 nM.

For O=C(Nc1cccc2c1C(=O)c1c-2n[nH]c1-c1ccc(O)c(CN2CCOCC2)c1)NN1CCOCC1, the IC50 was < 100 nM.

CC(C)c1nn(-c2c(Cl)cc(Cl)cc2Cl)c2nc(Cc3ccc(NS(=O)(=O)CCCN4CCCCC4)cc3)[nH]c(=O)c12 was tested, and the IC50 was < 100 nM.

With CC(C)N1CCN(Cc2cc(-c3[nH]nc4c3C(=O)c3c(NC(=O)NN5CCOCC5)cccc3-4)ccc2O)CC1 the IC50 was < 100 nM.

CCN(CCO)S(=O)(=O)c1cc(Cl)c(-n2nc(C(C)C)c3c(=O)[nH]c(Cc4ccc(OCCN5CCOCC5)cc4)nc32)c(Cl)c1 was tested, and the IC50 was < 100 nM.

For O=C(Nc1cccc2c1C(=O)c1c(-c3ccc(CNC(CO)CO)cc3)n[nH]c1-2)NN1CCOCC1, the IC50 was < 10 nM.

CC(C)OC(=O)CN1CCN(NC(=O)Nc2cccc3c2C(=O)c2c-3n[nH]c2-c2ccc(OCCN3CCCC3)cc2)CC1 was tested, and the IC50 was < 100 nM.

O=C(Nc1cccc2c1C(=O)c1c-2n[nH]c1-c1ccc(OP(=O)(O)O)cc1)NN1CCOCC1 was tested, and the IC50 was < 100 nM.

For Cc1cc(-c2[nH]nc3c2C(=O)c2c(NC(=O)NN4CCOCC4)cccc2-3)ccc1OCCN1CCCC1, the IC50 was < 100 nM.

With Cc1cc(OCCN2CCCCC2)ccc1-c1[nH]nc2c1C(=O)c1c(NC(=O)NN3CCN(C)CC3)cccc1-2 the IC50 was < 100 nM.

O=C(Nc1cccc2c1C(=O)c1c(-c3ccc(OCCN4CCOCC4)cc3Cl)n[nH]c1-2)NN1CCOCC1 was tested, and the IC50 was < 100 nM.

O=C(Nc1cccc2c1C(=O)c1c-2n[nH]c1-c1ccc(OCC(=O)N2CCOCC2)cc1)NN1CCOCC1 was tested, and the IC50 was < 100 nM.

For CC(C)c1nn(-c2c(Cl)cccc2Cl)c2nc(Cc3ccc(OCC(C)(C)O)cc3)[nH]c(=O)c12, the IC50 was < 100 nM.
